Test results as given in patent US20260042746A1, “2(1H)-PYRIDINIMINE DERATIVE” (SUMITOMO PHARMA CO., LTD., priority 2022, published 2026).

How the values were obtained:
Format in all cases: cell-based
α-synuclein aggregate [1] = experiment: Test 2: suppressing the accumulation of α-synuclein aggregate in neurospheroid from PLA2G6 mutant human iPS cells; settings: compound added day 4, measured day 9, DMSO = 100%
Protocol: Test 2: Evaluation of Suppressing the Accumulation of α-Synuclein Aggregate with Neurospheroid Prepared from Human iPS Cells with a Mutation in PLA2G6 Gene
(§1) (1) Induction of Differentiation from Human iPS Cell to Neural Cell
Neural stem cells were induced from PLA2G6 gene mutant iPS cells with PSC Neuronal Induction Medium (Thermo Fisher Scientific Inc., cat #A1647801). Neurospheroid was prepared from the induced neural stem cells by three-dimensional culture system, and preserved with BrainPhys Neuronal Medium (STEMCELL Technologies, cat #ST-05793) comprising NeuroCult SM1 Neuronal Supplement, N2 Supplement-A, 20 ng/mL BDNF, 20 ng/mL GDNF, 1 mM dibutyryl cAMP, and 200 nM ascorbic acid. Half of the culture medium was replaced on day 2 and day 4 after the induction of differentiation.
The test compound was diluted with the culture medium so as to be twice the final concentration, and an equal volume of the twice-concentrated solution was added to each well when half of the culture medium was replaced on day 4 after induction of differentiation.
(§2) (2) Evaluation of the Amount of α-Synuclein Aggregate
From the neurospheroid 9 days after the induction of differentiation, proteins were extracted with a TBS solution containing 1% TritionX-100, and the extracted proteins were subjected to a protein analysis with Simple Western system (Protein Simple, Inc., cat #SM-W008) using an α-synuclein antibody (Thermo Fisher Scientific Inc., cat #AHB0261) to measure the amount of the α-synuclein aggregate.
Assuming that the amount of the aggregate in the neurospheroid added with a DMSO solution is 100%, the amount of the aggregate in the neurospheroid added with each test compound was evaluated.

α-synuclein aggregate [2] = experiment: Test 3: reducing the accumulation of α-synuclein aggregate in neurospheroid from PLA2G6 mutant human iPS cells; settings: compound added day 10, measured day 15, DMSO = 100%
Protocol: Test 3: Evaluation of Reducing the Accumulation of α-Synuclein Aggregate with Neurospheroid Prepared from Human iPS Cells with a Mutation in PLA2G6 Gene
as §1
(§3) Neural stem cells were induced from PLA2G6 gene mutant iPS cells with PSC Neuronal Induction Medium (Thermo Fisher Scientific Inc., cat #A1647801). Neurospheroid was prepared from the induced neural stem cells by three-dimensional culture system, and preserved with BrainPhys Neuronal Medium (STEMCELL Technologies, cat #ST-05793) comprising NeuroCult SM1 Neuronal Supplement, N2 Supplement-A, 20 ng/mL BDNF, 20 ng/mL GDNF, 1 mM dibutyryl cAMP, and 200 nM ascorbic acid. Half of the culture medium was replaced every 3 or 4 days after the induction of differentiation.
The test compound was diluted with the culture medium so as to be twice the final concentration, and an equal volume of the twice-concentrated solution was added to each well when half of the culture medium was replaced on day 10 after induction of differentiation.
as §2
From the neurospheroid 15 days after the induction of differentiation, proteins were extracted with a TBS solution containing 1% TritionX-100, and the extracted proteins were subjected to a protein analysis with Simple Western system (Protein Simple, Inc., cat #SM-W008) using an α-synuclein antibody (Thermo Fisher Scientific Inc., cat #AHB0261) to measure the amount of the α-synuclein aggregate.
(§4) The amount of the aggregate in the neurospheroid added with each test compound was measured. Assuming that the amount of the aggregate in the neurospheroid added with a DMSO solution is 100%, the amount of the aggregate in the test samples was evaluated.

α-synuclein aggregate [3] = experiment: Test 5: suppressing the accumulation of α-synuclein aggregate in dopamine neurospheroid from PLA2G6 mutant human iPS cells; settings: compound added day 21, measured day 26, DMSO = 100%
Protocol: Test 5: Evaluation of Suppressing the Accumulation of α-Synuclein Aggregate with Dopamine Neurospheroid Prepared From Human iPS Cells with a Mutation in PLA2G6 Gene
as §1
as §3, with “Dopaminergic progenitor” for “Neural stem”, “dopaminergic neuron differentiation kit” for “PSC Neuronal Induction Medium”, “#A3147701). Dopamine neurospheroid” for “#A1647801). Neurospheroid”, “dopaminergic progenitor” for “neural stem”
The test compound was diluted with the culture medium so as to be twice the final concentration, and an equal volume of the twice-concentrated solution was added to each well when half of the culture medium was replaced on day 21 after induction of differentiation.
as §2
From the dopamine neurospheroid 26 days after the induction of differentiation, proteins were extracted with a TBS solution containing 1% TritionX-100, and the extracted proteins were subjected to a protein analysis with Simple Western system (Protein Simple, Inc., cat #SM-W008) using an α-synuclein antibody (Thermo Fisher Scientific Inc., cat #AHB0261) to measure the amount of the α-synuclein aggregate.
as §4

α-synuclein aggregate [4] = experiment: Test 11: reducing the accumulation of α-synuclein aggregate in dopamine neurospheroid from GBA1 mutant human iPS cells; settings: compound added day 40, measured day 44, DMSO = 100%
Protocol: Test 11: Evaluation of Reducing the Accumulation of α-Synuclein Aggregate with Dopamine Neurospheroid Prepared From Human iPS Cells with a Mutation in GBA1 Gene
as §1
Dopaminergic progenitor cells were induced from GBA1 gene mutant iPS cells with dopaminergic neuron differentiation kit (Thermo Fisher Scientific Inc., cat #A3147701). Dopamine neurospheroid was prepared from the induced dopaminergic progenitor cells by three-dimensional culture system, and preserved with BrainPhys Neuronal Medium (STEMCELL Technologies, cat #ST-05793) comprising NeuroCult SM1 Neuronal Supplement, N2 Supplement-A, 20 ng/mL BDNF, 20 ng/mL GDNF, 1 mM dibutyryl cAMP, and 200 nM ascorbic acid. Half of the culture medium was replaced every 3 or 4 days.
The test compound was diluted with the culture medium so as to be twice the final concentration, and an equal volume of the twice-concentrated solution was added to each well when half of the culture medium was replaced on day 40 after induction of differentiation.
as §2
From the dopamine neurospheroid 44 days after the induction of differentiation, proteins were extracted with a TBS solution containing 1% TritionX-100, and the extracted proteins were subjected to a protein analysis with Simple Western system (Protein Simple, Inc., cat #SM-W008) using an α-synuclein antibody (Thermo Fisher Scientific Inc., cat #AHB0261) to measure the amount of the α-synuclein aggregate.
as §4

## COc1ccn(C)/c(=N/C(=O)C2(C)CN(C)C2)c1 [Example 51, N-[(2E)-4-methoxy-1-methylpyridin-2(1H)-ylidene]-1,3-dimethylazetidine-3-carboxamide]
α-synuclein aggregate [1]; 100 nM, read-out: Amount of aggregate (%) 100 nM
  activity at 0.1 µM: 4%
α-synuclein aggregate [1]; 1000 nM, read-out: Amount of aggregate (%) 1000 nM
  activity at 1 µM: 9%
α-synuclein aggregate [2]; 100 nM
  Amount of aggregate (%) 100 nM: 12%
α-synuclein aggregate [2]; 1000 nM
  Amount of aggregate (%) 1000 nM: 10%
α-synuclein aggregate [3]; 100 nM
  Amount of aggregate (%) 100 nM: 27%
α-synuclein aggregate [3]; 1000 nM
  Amount of aggregate (%) 1000 nM: 31%
α-synuclein aggregate [4]; 100 nM
  Amount of aggregate (%) 100 nM: 16%
α-synuclein aggregate [4]; 1000 nM
  Amount of aggregate (%) 1000 nM: 30%
